A word on the Kd: it is the equilibrium constant for the complex coming apart.

The assay concerns the target T1, JMJD1C (partial, 2274-2498aa) (Homo sapiens, UniProt Q15652).
T1 construct: immobilised on CM7 chip
T1 sequence (Q15652 2274-2498): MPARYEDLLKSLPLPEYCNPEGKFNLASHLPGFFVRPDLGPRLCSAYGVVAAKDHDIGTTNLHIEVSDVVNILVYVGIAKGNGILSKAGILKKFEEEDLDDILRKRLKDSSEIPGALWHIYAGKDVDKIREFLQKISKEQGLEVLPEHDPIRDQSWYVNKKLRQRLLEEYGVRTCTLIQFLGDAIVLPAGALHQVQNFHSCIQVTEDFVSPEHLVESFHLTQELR
Nature of the assay: SPR, immobilised protein, […] Langmuir fit. The assay is classed as binding.

The molecule `CN1CC(=O)N2[C@H](c3ccc4c(c3)OCO4)c3[nH]c4ccccc4c3C[C@@H]2C1=O` [tadalafil] returned an equilibrium dissociation constant (Kd) of 256 µM.

The values are drawn from article PMC7780120, “Modulators of histone demethylase JMJD1C selectively target leukemic stem cells” (FEBS Open Bio, 2020).
